Experimental data: patent US20240261296A1, “THERAPEUTIC MODALITIES FOR INHIBITING PANCREATIC BETA CELL IMPAIRMENT AND TREATING DIABETES” (Hadasit Medical Research Serices & Development Ltd., priority 2021, published 2024)

Tested on: human islets β-cells
Experiment: glucose-stimulated insulin secretion and insulin content in palmitate-treated human islets
Format: cell-based
Conditions: palmitic acid 0.3 mM, 48 hr, donors 1 and 2
Method: Determination of glucose-stimulated insulin secretion (GSIS) and content: To determine acute insulin release in response to glucose stimulation, islets were washed with Krebs-Ringer bicarbonate buffer pH 7.4, containing 10 mM HEPES and 0.5% bovine serum albumin (KRBH), and pre-incubated for 2 hrs in the same buffer containing 3.3 mM glucose. The buffer was then discarded and replaced with fresh KRBH containing 3.3 mM glucose, and the islets incubated for 1 hour for basal insulin secretion, followed by additional 1 hour incubation in KRBH containing 16.7 mM glucose. The supernatants were collected, centrifuged at 900 rpm and insulin was determined by Rat or Human insulin radioimmunoassay (RIA) kits (Linco Research, St. Charles, MO) according to the Manufacturer's instructions. […] The acidic ethanol eluates were collected and the amount of insulin determined by ELISA.
ELISA Assay: Insulin was extracted from the intracellular storage granules in human islets cells using a lysis buffer (Ethanol-HCl). The extract was analysed by a specific ELISA (Mercodia) which is a solid phase two-site enzyme immunoassay based on the sandwich technique, in which two monoclonal antibodies are directed against separate antigenic determinants on the insulin molecule. […]

CC[C@@H]1CC[C@H](C)N1C(=O)c1cccc(NS(=O)(=O)c2ccc(C)c(F)c2)c1 [Compound C13, N-(3-((2R,5S)-2-ethyl-5-methylpyrrolidine-1-carbonyl)phenyl)-3-fluoro-4-methylbenzenesulfonamide] was tested, and the “restoring glucose-stimulated insulin secretion” value (16.7 mM glucose) was “more potent than L-798106” and the restoring insulin content was “more potent than L-798106”.
